Blank lines part the entries; values can stand above or below the compound they belong to.
Key:
VZV = test: Anti-VZV Activity, plaque reduction assay in MRC-5 cells; assay type: cell-based, varicella zoster virus (clinical isolates); conditions: Human alphaherpesvirus 3, MRC5, MRC-5 cells, clinical isolates
Procedure: Clinical isolates of varicella zoster virus (VZV) were assayed in monolayers of MRC-5 cells. MRC-5 cells are derived from human embyonic lung tissue. A plaque reduction assay was used in which a suspension Of the virus stock was used to infect monolayers of the cells in multiwell trays. a range of concentrations of the compound under test of known molarity was added to the wells. Plaque numbers at each concnetration were expressed as percentages of the control and a dose response curve was constructed. From these curves the 50% inhibitory concentration of each drug was determined.

HSV2 = test: Anti-HSV Activity, plaque reduction assay in Vero cells (HSV-2 strain 186); assay type: cell-based, Herpes Simplex Virus type 2 (strain 186)
Procedure: (§1) Herpes Simplex Virus types 1 (HSV 1) and 2 (HSV2) were assayed in monolayers of Vero cells in multiwell trays. The virus strains used were SC16 and 186 for HSV-1 and HSV-2 respectively. Activity of compounds was determined in the plaque reduction assay, in which a cell monolayer was infected with a suspension of the appropirate HSV, and then overlaid with nutrient agarose in the form of a gel to ensure that there was no spread of virus throughout the culture. A range of concentrations of compound of known molarity was incorporated in the nutrient agarose overlay. Plaque numbers at each concentration were expressed as percentages of the control and a dose-response curve was drawn. From this curve the 50% inhibitory concentration (IC50) was estimated to be 0.66 μm for the compound of formula (I) in which X represents a 2-bromovinyl group.

HSV1 = test: Anti-HSV Activity, plaque reduction assay in Vero cells (HSV-1 strain SC16); assay type: cell-based, Herpes Simplex Virus type 1 (strain SC16)
Procedure: as §1

[1] = CCID50 (Table 1; method not described); assay type: cell-based
[2] = toxicity / therapeutic index (general statement); conditions: statement in words

SMILES: CCc1cn([C@H]2C[C@H](O)[C@@H](CO)S2)c(=O)[nH]c1=O [CH2 CH3, OH, 2'-Deoxy-5-ethyl-4'thiouridine]
IC50 (VZV): 0.79 µM

IC50 (HSV2; Vero cells, strain 186, plaque reduction): > 10 µM
IC50 (HSV1; Vero cells, strain SC16, plaque reduction): ~2.3 µM
SMILES: Nc1nc(=O)n([C@H]2C[C@H](O)[C@@H](CO)S2)cc1/C=C/Br [CH=CHBr, NH2, 2'-Deoxy-5-E-(2-bromovinyl)-4'-thiocytidine]

SMILES: O=c1[nH]c(=O)n([C@H]2C[C@H](O)[C@@H](CO)S2)cc1/C=C/Br [CH=CHBr, OH, E-5-(2-bromovinyl)-2'-deoxy-4'-thiouridine]
CC50 [1]: > 500 µM

SMILES: Cc1cn([C@H]2C[C@H](O)[C@@H](CO)S2)c(=O)[nH]c1=O [β-4'-thio-thymidine]
toxicity [2]: toxic
activity against HSV2 (HSV2; statement in words): good activity
activity against HSV1 (HSV1; statement in words): good activity

— patent publication US5356882A, “Antiviral pyrimidine nucleosides” (University of Birmingham, priority 1989, dated 1994)
